Where a name gives a salt, the structure may show the parent alone.
Assay: LAWSON test: protection against chloroform-induced ventricular fibrillation
Type: in vivo, mice
Settings: Mus musculus, po, 0.5 h; female mice, intragastric, 30 minutes before chloroform; salts (hydrochloride); read-out: AD50 (dose protecting 50% of the animals against ventricular fibrillation)
Experimental: The arrhythmia was induced, in this test, by inhalation of chloroform until breathing stopped.
For each dose of the substance to be studied, batches of 10 female mice, each of about 20 g, were used. These mice had been fasting for 18 hours before the test. A batch of 10 animals was used as control group.
A dose of the compound to be studied was first administered by intragastric route except to the controls which only received the solvent used with the compound in question. Thirty minutes later, the animals were placed under a dome-shaped receptacle containing a high concentration of chloroform obtained by means of a strongly impregnated pad.
The animals were removed when totally asphyxiated (about 2 minutes later), the thorax was rapidly opened and the ventricular rhythm observed. The dose of the compound under study which protected 50% of the animals against ventricular fibrillation was then determined.
This protective dose is expressed as AD50 in mg/kg in the following Table. […]
Another comparative test was performed under the same conditions with
several compounds included within the scope of U.S. Pat. No. 3,882,129 at
the single dose of 100 mg/kg by intragastric route.
The following results were obtained which are expressed in percentage of protection obtained against the arrhythmic effect at the studied dose: […]

Structure (SMILES)	ED50 [mg/kg]
COc1cc(C(C)=O)ccc1OCCCN1CC[C@@H](OC(=O)Nc2ccc(Br)cc2)[C@H]2CCCC[C@@H]21 (relative stereo) [1-[3-(4-Acetyl-2-methoxy-phenoxy)-propyl]-4-[4-(bromo-phenyl)-carbamoyloxy]-trans-decahydroquinoline hydrochloride (axial form)]	> 100
COc1cc(C(C)=O)ccc1OCCCN1CC[C@@H](OC(N)=O)[C@H]2CCCC[C@@H]21 (relative stereo) [1-[3-(4-Acetyl-2-methoxy-phenoxy)-propyl]-4-carbamoyloxy-trans-decahydroquinoline hydrochloride (axial form)]	> 100
NC(=O)O[C@@H]1CCN(CCOc2c(Cl)cccc2Cl)[C@H]2CCCC[C@H]12 (relative stereo) [4-Carbamoyloxy-1-[2-(2,6-dichloro-phenoxy)-ethyl]-trans-decahydroquinoline hydrochloride (axial form)]	50
NC(=O)O[C@H]1CCN(CCCOc2ccc(F)cc2)[C@H]2CCCC[C@H]12 (relative stereo) [4-Carbamoyloxy-1-[3-(4-fluoro-phenoxy)-propyl]-trans-decahydroquinoline hydrochloride (equatorial form)]	45
Cc1ccc(NC(=O)O[C@@H]2CCN(CCCOc3ccc(F)cc3)[C@H]3CCCC[C@H]23)cc1Cl (relative stereo) [4-[3-(Chloro-4-methyl-phenyl)-carbamoyloxy]-1-[3-(4-fluoro-phenoxy)-propyl]-trans-decahydroquinoline hydrochloride (axial form)]	> 100
Cc1ccc(NC(=O)O[C@H]2CCN(CCCOc3ccc(F)cc3)[C@H]3CCCC[C@H]23)cc1Cl (relative stereo) [4-[(3-Chloro-4-methyl-phenyl)-carbamoyloxy]-1-[3-(4-fluoro-phenoxy)-propyl]-trans-decahydroquinoline hydrochloride (equatorial form)]	30
O=C(Nc1ccc(Br)cc1)O[C@H]1CCN(CCCOc2ccc(F)cc2)[C@H]2CCCC[C@H]12 (relative stereo) [4-[(4-Bromo-phenyl)-carbamoyloxy]-1-[3-(4-fluoro-phenoxy)-propyl]-trans-decahydroquinoline hydrochloride (equatorial form)]	120
O=C(Nc1ccc(Br)cc1)O[C@@H]1CCN(CCCOc2ccc(F)cc2)[C@H]2CCCC[C@H]12 (relative stereo) [4-[(4-Bromo-phenyl)-carbamoyloxy]-[1-3-(4-fluoro-phenoxy)-propyl]-trans-decahydroquinoline hydrochloride (axial form)]	150
CCNC(=O)O[C@@H]1CCN(CCCOc2ccc(F)cc2)[C@H]2CCCC[C@H]12 (relative stereo) [ethyl, 3, O, 4-fluoro-phenyl, axial, 4-(N-Ethylcarbamoyloxy)-1-[3-(4-fluoro-phenoxy)-propyl]-trans-decahydroquinoline hydrochloride (axial form)]	50
NC(=O)O[C@@H]1CCN(CCOc2cccc3ccccc23)[C@H]2CCCC[C@H]12 (relative stereo) [hydrogen, 2, O, 1-naphthyl, axial, 4-Carbamoyloxy-1-[2-(1-naphthyloxy)-ethyl]-trans-decahydroquinoline hydrochloride (axial form)]	75
COc1ccccc1OCCN1CC[C@@H](OC(N)=O)[C@H]2CCCC[C@@H]21 (relative stereo) [hydrogen, 2, O, 2-methoxy-phenyl, axial, 4-Carbamoyloxy-1-[2-(2-methoxy-phenoxy)-ethyl]-trans-decahydroquinoline hydrochloride (axial form)]	75
NC(=O)O[C@@H]1CCN(CCOc2ccc3ccccc3c2)[C@H]2CCCC[C@H]12 (relative stereo) [hydrogen, 2, O, 2-naphthyl, axial, 4-Carbamoyloxy-1-[2-(2-naphthyloxy)-ethyl]-trans-decahydroquinoline hydrochloride (axial form)]	50
NC(=O)O[C@@H]1CCN(CCOc2ccc(Br)cc2)[C@H]2CCCC[C@H]12 (relative stereo) [hydrogen, 2, O, 4-bromo-phenyl, axial, 1-[2-(4-Bromo-phenoxy)-ethyl]-4 carbamoyloxy-trans-decahydroquinoline hydrochloride (axial form)]	90
NC(=O)O[C@@H]1CCN(CCOc2ccc(F)cc2)[C@H]2CCCC[C@H]12 (relative stereo) [hydrogen, 2, O, 4-fluoro-phenyl, axial, 4-Carbamoyloxy-1-[2-(4-fluoro-phenoxy)-ethyl]-trans-decahydroquinoline hydrochloride (axial form)]	> 100
NC(=O)O[C@@H]1CCN(CCCOc2cccc3ccccc23)[C@H]2CCCC[C@H]12 (relative stereo) [hydrogen, 3, O, 1-naphthyl, axial, 4-Carbamoyloxy-1-[3-(1-naphthyloxy)-propyl]-trans-decahydroquinoline hydrochloride (axial form)]	> 100
NC(=O)O[C@@H]1CCN(CCCOc2ccc3ccccc3c2)[C@H]2CCCC[C@H]12 (relative stereo) [hydrogen, 3, O, 2-naphthyl, axial, 4-Carbamoyloxy-1-[3-(2-naphthyloxy)-propyl]-trans-decahydroquinoline hydrochloride (axial form)]	> 100
CC(=O)c1ccc(OCCCN2CC[C@@H](OC(N)=O)[C@H]3CCCC[C@@H]32)cc1 (relative stereo) [hydrogen, 3, O, 4-acetyl-phenyl, axial, 1-[3-(4-Acetyl-phenoxy)-propyl]-4-carbamoyloxy-trans-decahydroquinoline hydrochloride (axial form)]	> 100
NC(=O)O[C@@H]1CCN(CCCOc2ccc(Br)cc2)[C@H]2CCCC[C@H]12 (relative stereo) [hydrogen, 3, O, 4-bromo-phenyl, axial, 1-[3-(4-Bromo-phenoxy)-propyl]-4-carbamoyloxy-trans-decahydroquinoline hydrochloride (axial form)]	65
NC(=O)O[C@@H]1CCN(CCCOc2ccc(Cl)cc2)[C@H]2CCCC[C@H]12 (relative stereo) [hydrogen, 3, O, 4-chloro-phenyl, axial, 4-Carbamoyloxy-1-[3-(4-chloro-phenoxy)-propyl]-trans-decahydroquinoline hydrochloride (axial form)]	> 100
N#Cc1ccc(OCCCN2CC[C@@H](OC(N)=O)[C@H]3CCCC[C@@H]32)cc1 (relative stereo) [hydrogen, 3, O, 4-cyano-phenyl, axial, 4-Carbamoyloxy-1-[3-(4-cyano-phenoxy)-propyl]-trans-decahydroquinoline hydrochloride (axial form)]	30
COc1ccc(OCCCN2CC[C@@H](OC(N)=O)[C@H]3CCCC[C@@H]32)cc1 (relative stereo) [hydrogen, 3, O, 4-methoxy-phenyl, axial, 4-Carbamoyloxy-1-[3-(4-methoxy-phenoxy)-propyl]-trans-decahydroquinoline hydrochloride (axial form)]	> 100
Cc1ccc(OCCCN2CC[C@@H](OC(N)=O)[C@H]3CCCC[C@@H]32)cc1 (relative stereo) [hydrogen, 3, O, 4-methyl-phenyl, axial, 4-Carbamoyloxy-1-[3-(4-methyl-phenoxy)-propyl]-trans-decahydroquinoline hydrochloride (axial form)]	> 100
